Like-named read-outs stand apart in the source and are kept apart here. Where a SMILES comes first, the peptide text is derived from it. Bridges are numbered along the chain shown (N, C = ends). [ ]: non-standard residue; d: D form. Phe(4-B(OH)2) = N[C@@H](Cc1ccc(B(O)O)cc1)C(=O)O; R8 = C=CCCCCCC[C@@](C)(N)C(=O)O; Cba = N[C@@H](CC1CCC1)C(=O)O; hLeu = CC(C)CC[C@H](N)C(=O)O; S5 = C=CCCC[C@](C)(N)C(=O)O; Nle = CCCC[C@H](N)C(=O)O
Experiments:
MDMX = molecular target: T1, MDMX (Homo sapiens, UniProt O15151); assay: Competitive fluorescence polarization assay for MDMX; type: binding; settings: competitive FP assay
T1 sequence (O15151 1-125): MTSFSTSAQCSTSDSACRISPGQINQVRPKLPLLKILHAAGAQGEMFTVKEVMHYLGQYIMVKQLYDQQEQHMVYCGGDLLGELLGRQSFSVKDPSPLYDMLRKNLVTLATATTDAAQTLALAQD

MDM2 = MDM2 (Homo sapiens, UniProt Q00987); assay: Competitive fluorescence polarization assay for MDM2; type: binding; settings: competitive FP assay, MDM2
MDM2, sequence (Q00987 1-125): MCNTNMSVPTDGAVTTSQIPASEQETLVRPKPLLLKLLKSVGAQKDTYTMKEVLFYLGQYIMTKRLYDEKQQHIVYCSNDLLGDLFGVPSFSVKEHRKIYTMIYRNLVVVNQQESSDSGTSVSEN

| Compound | IC50 (MDMX; read-out: IC50 (MDMX)) | Ki (MDMX; read-out: Ki (MDMX)) | IC50 (MDM2; read-out: IC50 (MDM2)) | Ki (MDM2; read-out: Ki (MDM2)) | IC50 (MDMX; IC50 (MDMX)) | Ki (MDMX; Ki (MDMX)) | IC50 (MDM2; IC50 (MDM2)) | Ki (MDM2; Ki (MDM2)) |
| --- | --- | --- | --- | --- | --- | --- | --- | --- |
| CCCC[C@H](NC(=O)[C@H](C)NC(=O)[C@H](C)NC(=O)[C@]1(C)CCCC=CCCCCCC[C@@](C)(NC(=O)[C@H](Cc2ccccc2)NC(=O)[C@@H](NC(=O)[C@H](CC(C)C)NC(=O)[C@H](C)NC(=O)[C@H](C)NC(=O)[C@H](C)NC(C)=O)[C@@H](C)O)C(=O)N[C@@H](CCC(=O)O)C(=O)N[C@@H](Cc2ccc(O)cc2)C(=O)N[C@@H](Cc2c[nH]c3ccccc23)C(=O)N[C@@H](C)C(=O)N[C@@H](CCC(N)=O)C(=O)N[C@@H](CC(C)C)C(=O)N1)C(=O)N[C@@H](C)C(N)=O [compound 376] (Ac-AAALTF[R8]EYWAQL[S5]AA[Nle]A-NH2; staple 7-14) | 10 to 100 nM | < 10 nM | 10 to 100 nM | < 10 nM | – | – | – | – |
| CCCC[C@H](NC(=O)[C@H](C)NC(=O)[C@H](C)NC(=O)[C@]1(C)CCCC=CCCCCCC[C@@](C)(NC(=O)[C@H](Cc2ccccc2)NC(=O)[C@@H](NC(=O)[C@H](CC(C)C)NC(C)=O)[C@@H](C)O)C(=O)N[C@@H](CCC(=O)O)C(=O)N[C@@H](Cc2ccc(O)cc2)C(=O)N[C@@H](Cc2c[nH]c3ccccc23)C(=O)N[C@@H](C)C(=O)N[C@@H](CCC(N)=O)C(=O)N[C@@H](CC(C)C)C(=O)N1)C(=O)N[C@@H](C)C(=O)N[C@@H](C)C(N)=O [compound 377] (Ac-LTF[R8]EYWAQL[S5]AA[Nle]AA-NH2; staple 4-11) | 10 to 100 nM | 10 to 100 nM | 10 to 100 nM | < 10 nM | – | – | – | – |
| CCCC[C@H](NC(=O)[C@H](C)NC(=O)[C@H](C)NC(=O)[C@]1(C)CCCC=CCCCCCC[C@@](C)(NC(=O)[C@H](Cc2ccccc2)NC(=O)[C@@H](NC(=O)[C@H](CC(C)C)NC(=O)[C@H](C)NC(C)=O)[C@@H](C)O)C(=O)N[C@@H](CCC(=O)O)C(=O)N[C@@H](Cc2ccc(O)cc2)C(=O)N[C@@H](Cc2c[nH]c3ccccc23)C(=O)N[C@@H](C)C(=O)N[C@@H](CCC(N)=O)C(=O)N[C@@H](CC(C)C)C(=O)N1)C(=O)N[C@@H](C)C(=O)N[C@@H](C)C(N)=O [compound 378] (Ac-ALTF[R8]EYWAQL[S5]AA[Nle]AA-NH2; staple 5-12) | 10 to 100 nM | 10 to 100 nM | 10 to 100 nM | < 10 nM | – | – | – | – |
| CCCC[C@H](NC(=O)[C@H](C)NC(=O)[C@H](C)NC(=O)[C@]1(C)CCCC=CCCCCCC[C@@](C)(NC(=O)[C@H](Cc2ccccc2)NC(=O)[C@@H](NC(=O)[C@H](CC(C)C)NC(=O)[C@H](C)NC(=O)[C@H](C)NC(C)=O)[C@@H](C)O)C(=O)N[C@@H](CCC(=O)O)C(=O)N[C@@H](Cc2ccc(O)cc2)C(=O)N[C@@H](Cc2c[nH]c3ccccc23)C(=O)N[C@@H](C)C(=O)N[C@@H](CCC(N)=O)C(=O)N[C@@H](CC(C)C)C(=O)N1)C(=O)N[C@@H](C)C(=O)N[C@@H](C)C(N)=O [compound 379] (Ac-AALTF[R8]EYWAQL[S5]AA[Nle]AA-NH2; staple 6-13) | 10 to 100 nM | 10 to 100 nM | 10 to 100 nM | < 10 nM | – | – | – | – |
| CCCC[C@H](NC(=O)[C@H](C)NC(=O)[C@H](C)NC(=O)[C@]1(C)CCCC=CCCCCCC[C@@](C)(NC(=O)[C@H](Cc2ccccc2)NC(=O)[C@@H](NC(=O)[C@H](CC(C)C)NC(C)=O)[C@@H](C)O)C(=O)N[C@@H](CCC(=O)O)C(=O)N[C@@H](Cc2ccc(O)cc2)C(=O)N[C@@H](Cc2c[nH]c3ccccc23)C(=O)N[C@@H](C)C(=O)N[C@@H](CCC(N)=O)C(=O)N[C@@H](CC2CCC2)C(=O)N1)C(=O)N[C@@H](C)C(=O)N[C@@H](C)C(N)=O [compound 380] (Ac-LTF[R8]EYWAQ[Cba][S5]AA[Nle]AA-NH2; staple 4-11) | 10 to 100 nM | 10 to 100 nM | 10 to 100 nM | < 10 nM | – | – | – | – |
| CCCC[C@H](NC(=O)[C@H](C)NC(=O)[C@H](C)NC(=O)[C@]1(C)CCCC=CCCCCCC[C@@](C)(NC(=O)[C@H](Cc2ccccc2)NC(=O)[C@@H](NC(=O)[C@H](CC(C)C)NC(C)=O)[C@@H](C)O)C(=O)N[C@@H](CCC(=O)O)C(=O)N[C@@H](Cc2ccc(O)cc2)C(=O)N[C@@H](Cc2c[nH]c3ccccc23)C(=O)N[C@@H](C)C(=O)N[C@@H](CCC(N)=O)C(=O)N[C@@H](CCC(C)C)C(=O)N1)C(=O)N[C@@H](C)C(=O)N[C@@H](C)C(N)=O [compound 381] (Ac-LTF[R8]EYWAQ[hLeu][S5]AA[Nle]AA-NH2; staple 4-11) | 10 to 100 nM | 10 to 100 nM | 10 to 100 nM | < 10 nM | – | – | – | – |
| CCCC[C@H](NC(=O)[C@H](C)NC(=O)[C@H](C)NC(=O)[C@]1(C)CCCC=CCCCCCC[C@@](C)(NC(=O)[C@H](Cc2ccccc2)NC(=O)[C@@H](NC(=O)[C@H](CC(C)C)NC(=O)[C@H](C)NC(C)=O)[C@@H](C)O)C(=O)N[C@@H](CCC(=O)O)C(=O)N[C@@H](Cc2ccc(O)cc2)C(=O)N[C@@H](Cc2c[nH]c3ccccc23)C(=O)N[C@@H](C)C(=O)N[C@@H](CCC(N)=O)C(=O)N[C@@H](CCC(C)C)C(=O)N1)C(=O)N[C@@H](C)C(=O)N[C@@H](C)C(N)=O [compound 382] (Ac-ALTF[R8]EYWAQ[hLeu][S5]AA[Nle]AA-NH2; staple 5-12) | 10 to 100 nM | < 10 nM | 10 to 100 nM | < 10 nM | – | – | – | – |
| CCCC[C@H](NC(=O)[C@H](C)NC(=O)[C@H](C)NC(=O)[C@]1(C)CCC/C=C/CCCCCC[C@@](C)(NC(=O)[C@H](Cc2ccccc2)NC(=O)[C@@H](NC(=O)[C@H](CC(C)C)NC(C)=O)[C@@H](C)O)C(=O)N[C@@H](C)C(=O)N[C@@H](Cc2ccc(O)cc2)C(=O)N[C@@](C)(Cc2c[nH]c3ccccc23)C(=O)N[C@@H](C)C(=O)N[C@@H](CCC(N)=O)C(=O)N[C@@H](CC(C)C)C(=O)N1)C(=O)N[C@@H](C)C(N)=O [compound 388] | 10 to 100 nM | < 10 nM | 100 to 1000 nM | 10 to 100 nM | – | – | – | – |
| C=CCCCCCC[C@@](C)(NC(=O)[C@H](Cc1ccccc1)NC(=O)[C@@H](NC(=O)[C@H](CC(C)C)NC(C)=O)[C@@H](C)O)C(=O)N[C@@H](C)C(=O)N[C@@H](Cc1ccc(O)cc1)C(=O)N[C@@H](Cc1c[nH]c2ccccc12)C(=O)N[C@@H](C)C(=O)N[C@@H](CCC(N)=O)C(=O)N[C@@H](CC(C)C)C(=O)N[C@@](C)(CCCC=C)C(=O)N[C@@H](C)C(=O)N[C@@H](C)C(=O)N[C@@H](CCCC)C(=O)N[C@@H](C)C(N)=O [compound 411] | > 1000 nM | > 1000 nM | 100 to 1000 nM | 100 to 1000 nM | – | – | – | – |
| CCCC[C@H](NC(=O)[C@H](C)NC(=O)[C@H](C)NC(=O)C(C)(C)NC(=O)[C@H](CC(C)C)NC(=O)[C@H](CCC(N)=O)NC(=O)[C@H](C)NC(=O)[C@H](Cc1c[nH]c2ccccc12)NC(=O)[C@H](Cc1ccc(O)cc1)NC(=O)[C@H](C)NC(=O)C(C)(C)NC(=O)[C@H](Cc1ccccc1)NC(=O)[C@@H](NC(=O)[C@H](CC(C)C)NC(C)=O)[C@@H](C)O)C(=O)N[C@@H](C)C(N)=O [compound 412] | 10 to 100 nM | < 10 nM | < 10 nM | < 10 nM | – | – | – | – |
| CC(=O)N[C@@H](CC(C)C)C(=O)N[C@H](C(=O)N[C@@H](Cc1ccccc1)C(=O)N[C@]1(C)CCCCCCCCCCC[C@@](C)(C(=O)N[C@@H](CO)C(=O)N[C@@H](C)C(=O)N[C@@H](C)C(N)=O)NC(=O)[C@H](CC2CCC2)NC(=O)[C@H](CCC(N)=O)NC(=O)[C@H](C)NC(=O)[C@H](Cc2c[nH]c3ccccc23)NC(=O)[C@H](Cc2ccc(O)cc2)NC(=O)[C@H](CCC(=O)O)NC1=O)[C@@H](C)O [compound 434] | 10 to 100 nM | 10 to 100 nM | 10 to 100 nM | < 10 nM | – | – | – | – |
| CC(=O)N[C@@H](CC(C)C)C(=O)N[C@H](C(=O)N[C@@H](Cc1ccccc1)C(=O)N[C@]1(C)CCCCCCCCCCC[C@@](C)(C(=O)N[C@@H](C)C(=O)N[C@@H](C)C(=O)N[C@@H](C)C(=O)N[C@@H](C)C(=O)N[C@@H](C)C(=O)N[C@H](C)C(N)=O)NC(=O)[C@H](CC(C)C)NC(=O)[C@H](CCC(N)=O)NC(=O)[C@H](C)NC(=O)[C@H](Cc2c[nH]c3ccccc23)NC(=O)[C@H](Cc2ccc(O)cc2)NC(=O)[C@H](CCC(=O)O)NC1=O)[C@@H](C)O [compound 445] | – | – | – | – | 100 to 1000 nM | 10 to 100 nM | 10 to 100 nM | < 10 nM |
| CC(=O)N[C@@H](CC(C)C)C(=O)N[C@H](C(=O)N[C@@H](Cc1ccccc1)C(=O)N[C@]1(C)CCCCCCC=CCCC[C@@](C)(C(=O)N[C@@H](C)C(=O)N[C@@H](C)C(=O)N[C@@H](C)C(=O)N[C@@H](C)C(=O)N[C@@H](C)C(=O)N[C@H](C)C(N)=O)NC(=O)[C@H](CC(C)C)NC(=O)[C@H](CCC(N)=O)NC(=O)[C@H](C)NC(=O)[C@H](Cc2c[nH]c3ccccc23)NC(=O)[C@H](Cc2ccc(B(O)O)cc2)NC(=O)[C@H](CCC(=O)O)NC1=O)[C@@H](C)O [compound 556] (Ac-LTF[R8]E[Phe(4-B(OH)2)]WAQL[S5]AAAAA[dA]-NH2; staple 4-11) | – | – | – | – | – | 10 to 100 nM | – | < 10 nM |
| CC(=O)N[C@@H](C)C(=O)N[C@@H](C)C(=O)N[C@@H](C)C(=O)N[C@@H](CC(C)C)C(=O)N[C@H](C(=O)N[C@@H](Cc1ccccc1)C(=O)N[C@]1(C)CCCCCC/C=C/CCC[C@@](C)(C(=O)N[C@@H](C)C(=O)N[C@@H](C)C(=O)N[C@@H](C)C(=O)N[C@@H](C)C(=O)N[C@@H](C)C(=O)N[C@H](C)C(N)=O)NC(=O)[C@H](CC(C)C)NC(=O)[C@H](CCC(N)=O)NC(=O)[C@H](C)NC(=O)[C@H](Cc2c[nH]c3ccccc23)NC(=O)[C@H](Cc2ccc(O)cc2)NC(=O)[C@H](CCC(=O)O)NC1=O)[C@@H](C)O [compound 557] (Ac-AAALTF[R8]EYWAQL[S5]AAAAA[dA]-NH2; staple (E) 7-14) | – | – | – | – | – | 10 to 100 nM | – | 10 to 100 nM |
